From article PMC11892739, “Site-specific molecular glues for the 14-3-3/Tau pS214 protein–protein interaction via reversible covalent imine tethering” (RSC Medicinal Chemistry, 2025)

System: 14-3-3ζ/Tau pS2 peptide interaction
Assay: Fluorescence anisotropy 14-3-3ζ titration in the presence of 250 μM compound and Tau pS2 peptide
Assay type: binding
Settings: 250 μM compound; 100 nM client peptides, 10 nM Tau pS2 peptide
Description: On the other hand, the PPI stabilizing potency of series 1 compounds was highly dependent on the position and chemical property of the substituent. […] The compound screen for these compounds was further complemented by 14-3-3ζ titration assays in the presence of a constant concentration of compound (250 μM) and Tau pS2 peptide (10 nM) (Fig. 3c, ESI ^† Fig. S6).
This statement is strengthened by the diminished stabilizing activity when shifting the more polar chloro substituent from the para (14) to the ortho (5) to the meta position (8), respectively. […]
chromatography (HisTrap high performance cartridges, Cytiva). Typically two 5 mL columns were used for a 2 L culture in which the lysate was loaded on the column, washed with 10 CV wash buffer (50 mM Hepes, pH 8.0, 300 mM NaCl, 25 mM imidazole, 2 mM βME), and eluted with several fractions (2-4 CV) of elution buffer (50 mM Hepes, pH 8.0, 300 mM NaCl, 250 mM imidazole, 2 mM βME). Fractions containing the 14-3-3 protein were combined and dialyzed into 25 mM HEPES pH 8.0, 200 mM NaCl, 10 mM MgCl2, 2 mM βME, followed by dialysis into 25 mM HEPES, 100 mM NaCl, 10 mM MgCl2, 500 μM TCEP (adjusted to pH 8.0). Dialyzed protein was concentrated to ∼40 mg/mL, analyzed by Q -Tof LC/MS, and aliquots were flash -frozen for storage at −80 °C. For 14 -3-3σ∆c, 1 mg TEV per 100 mg purified protein was added to the dialysis to remove the purification tag. The cleaved sample was then again loaded on a 10 mL Ni-NTA column to separate the cleaved product from the expression tag and residual uncleaved protein. The flowthrough was loade d on a Superdex 75 pg 16/60 size exclusion column (GE Life Sciences) using 25 mM HEPES, 100 mM NaCl, 10 mM MgCl2, 500 μM TCEP (adjusted to pH = 8.0) as running buffer. Fractions containing the 14 -3-3 protein were pooled and concentrated to ∼60 mg/mL, analyzed Q -Tof LC/MS, and aliquots were flash -frozen for storage at −80°C.
Fluorescence Anisotropy – compound titration
Compound titration assays were performed by titrating compounds (in 1% DMSO, starting at 500 μM) in a 2-fold dilution series to preformed complex of fluorescein -labeled Tau pS2 (10 nM) and 14 -3-3ζ (100 nM) (which represents approximately 20% bound Tau pS2 peptide to 14 -3-3ζ to allow further complex formation by addition of fragments 1) in FA buffer (10 mM HEPES pH 7.4, 150 mM NaCl, 50 µM TCEP, 0.1% (v/v) Tween20, 0.1% (w/v) BSA). Dilution series were made in polystyrene low -volume 384 -well plates (Corning #4514, Black Round Bottom). Measurements were performed directly after plate preparation, using a Tecan SPARK plate reader at room temperature ( λex: 485±20 nm; λem: 535±25 nm; mirror: automatic; flashes: 30; settle time: 1 ms; gain: optimal; Z -position: calculated from well). Wells containing only fluorescein labelled peptide were used to set as G -factor calibrated from these wells. All data were analyzed using GraphPad Prism (10.0.1) and fitted with a four -parameter logistic model (4PL) to determine binding affinities (dissociation constant, KD). All data shown is background corrected for the signal without 14 -3-3ζ and the mean and standard deviation of technical duplicate is plotted, assay performed in a scientific duplicate for hit compounds.
Fluorescence Anisotropy – 14-3-3 titrations in the presence of compound To characterize the affinity of the Tau peptides for 14-3-3 in the presence of compound, 14-3-3ζ or γ was titrated in a 2-fold dilution series starting at 400 (for the 14-3-3ζ titrations to Tau pS2) or 800 (for the 14-3-3γ titrations to Tau pS214 or pS324) µM. 14-3-3 was added to 10 nM of fluorescein-labeled peptide (Tau pS2, Tau pS214 or Tau pS324) in the presence of 250 µM compound (1% DMSO). The assays were performed in a similar way as described above. Data shown is the average and standard deviation of a technical duplicate, top plateau corrected where needed, assay performed in a scientific duplicate.
Fluorescence Anisotropy – peptide screen […]

CCc1ccc(-c2nccn2-c2ccc(C=O)c(Br)c2)cc1 [Compound 18]
selectivity against panel of 13 14-3-3 client peptides (in words): selective for the 14-3-3ζ/Tau pS2 peptide complex
